Data reported in ChEMBL document CHEMBL4840323, “Discovery of an Orally Bioavailable Small-Molecule Inhibitor for the β-Catenin/B-Cell Lymphoma 9 Protein-Protein Interaction” (J Med Chem, 2021).
The source made the active and inactive calls. The calls are words filed in the database; no cut-off is given here.

Legend:
SW480 [1] = assay: cells; settings: Homo sapiens, SW480, 72 h
Description: Antiproliferative activity against human SW480 cells assessed as cell growth inhibition measured after 72 hrs by MTS assay

[2] = Half life in human liver microsomes at 1 uM measured up to 60 mins in presence of NADPH by LC-MS/SM analysis; assay type: ADME, Microsome; settings: 1 h
MCF-10A [3] = assay: cells; settings: Homo sapiens, 72 h
Description: Cytotoxicity against human MCF-10A cells assessed as cell growth inhibition measured after 72 hrs by MTS assay

[4] = Clearance in C57BL/6 mouse at 20 mg/kg, po via gavage measured up to 24 hrs by LC-MS/MS analysis; assay type: ADME, organism-based; settings: in vivo
[5] = Solubility of the compound in 0.9% NaCl at 2 mg/ml; assay type: physicochemical
[6] = Toxicity in SCID-Beige mouse orthotopically xenografted with patient-derived 4013 cells at 90 mg/kg, po via gavage for 5 days; assay type: organism-based; settings: in vivo, 120 h, time 5 day
MCF-10A [7] = assay: Induction of apoptosis in human MCF-10A cells assessed as early apoptotic cells at 10 uM measured after 72 hrs by annexinV-FITC/propidium iodide staining based flow cytometry (reference value: 28.9 %); assay type: cell-based
MDA-MB-468 [8] = assay: Induction of apoptosis in human MDA-MB-468 cells assessed as early apoptotic cells at 40 uM measured after 72 hrs by annexinV-FITC/propidium iodide staining based flow cytometry (reference value: 28.9 %); assay type: functional
MDA-MB-231 [9] = assay: Antiproliferative activity against human MDA-MB-231 cells harboring beta-catenin pcDNA3.1 vector at 20 uM measured after 72 hrs by MTS assay; assay type: functional, cell-based
MCF-10A [10] = assay: Induction of apoptosis in human MCF-10A cells assessed as late apoptotic cells at 40 uM measured after 72 hrs by annexinV-FITC/propidium iodide staining based flow cytometry (reference value: 13.9 %); assay type: cell-based
MDA-MB-468 [11] = assay: Inhibition of Wnt/beta-catenin transactivation signalling in Wnt3a stimulated human MDA-MB-468 cells assessed as relative activity at 25 uM measured after 24 hrs by TOPFlash reporter gene assay relative to control; assay type: cell-based; parameters: scale not given: the % may be the effect or the level left
Mus musculus [12] = species: Mus musculus; settings: dose 90.0 mg/kg, time 5.0 day
Mus musculus [13] = species: Mus musculus; settings: dose 90.0 mg/kg, time 5.0 day; remark: listed apart in the source
[14] = Half life in C57BL/6 mouse at 1 mg/kg, iv measured after 5 mins by LC-MS/MS analysis; assay type: ADME, organism-based; settings: in vivo
MDA-MB-231 [15] = assay: Antiinvasive activity against human MDA-MB-231 cells cultured as 3D-spheroids at 10 uM measured after 6 days by imaging analysis relative to control; assay type: functional; settings: time 6 day
Mus musculus [16] = species: Mus musculus; settings: dose 90.0 mg/kg, time 5.0 day; remark: listed apart in the source
MCF-10A [17] = assay: Induction of apoptosis in human MCF-10A cells assessed as early apoptotic cells at 40 uM measured after 72 hrs by annexinV-FITC/propidium iodide staining based flow cytometry (reference value: 28.9 %); assay type: cell-based
MDA-MB-468 [18] = assay: Induction of apoptosis in human MDA-MB-468 cells assessed as early apoptotic cells at 20 uM measured after 72 hrs by annexinV-FITC/propidium iodide staining based flow cytometry (reference value: 28.9 %); assay type: functional
Mus musculus [19] = species: Mus musculus; settings: dose 90.0 mg/kg, time 5.0 day; remark: listed apart in the source
MDA-MB-231 [20] = assay: Antiinvasive activity against human MDA-MB-231 cells cultured as 3D-spheroids measured after 6 days by imaging analysis; assay type: functional, cell-based; settings: dose 5-40 µM, time 6.0 day
MDA-MB-468 [21] = assay: Induction of apoptosis in human MDA-MB-468 cells assessed as late apoptotic cells at 40 uM measured after 72 hrs by annexinV-FITC/propidium iodide staining based flow cytometry (reference value: 13.9 %); assay type: functional
Mus musculus [22] = species: Mus musculus; settings: dose 90.0 mg/kg, time 5.0 day; remark: listed apart in the source
[23] = Volume of distribution in C57BL/6 mouse at 1 mg/kg, iv measured after 5 mins by LC-MS/MS analysis; assay type: ADME, organism-based; settings: in vivo
[24] = AUC in C57BL/6 mouse at 20 mg/kg, po via gavage measured up to 24 hrs by LC-MS/MS analysis; assay type: ADME, organism-based; parameters: route oral, dose 20 mg/kg, time <=24; settings: in vivo
SW480 [25] = assay: Inhibition of Wnt/beta-catenin transactivation signalling in human SW480 cells assessed as relative activity at 6.25 uM measured after 24 hrs by TOPFlash reporter gene assay relative to control; assay type: cell-based; parameters: scale not given: the % may be the effect or the level left
[26] = Intrinsic clearance in mouse liver microsomes at 1 uM measured up to 60 mins in presence of NADPH by LC-MS/SM analysis; assay type: ADME, Microsome; settings: 1 h
MDA-MB-231 [27] = assay: cells; settings: Homo sapiens, MDA-MB-231, 72 h
Description: Antiproliferative activity against human MDA-MB-231 cells assessed as cell growth inhibition measured after 72 hrs by MTS assay

SW480 [28] = assay: Inhibition of Wnt/beta-catenin transactivation signalling in human SW480 cells assessed as relative activity at 1.56 uM measured after 24 hrs by TOPFlash reporter gene assay relative to control; assay type: cell-based; parameters: scale not given: the % may be the effect or the level left
[29] = AUC in C57BL/6 mouse at 1 mg/kg, iv measured after 5 mins by LC-MS/MS analysis; assay type: ADME, organism-based; parameters: route intravenous, dose 1 mg/kg, time 5 min; settings: in vivo
MDA-MB-468 [30] = assay: Induction of apoptosis in human MDA-MB-468 cells assessed as early apoptotic cells at 10 uM measured after 72 hrs by annexinV-FITC/propidium iodide staining based flow cytometry (reference value: 28.9 %); assay type: functional
[31] = Half life in C57BL/6 mouse at 20 mg/kg, po via gavage measured up to 24 hrs by LC-MS/MS analysis; assay type: ADME, organism-based; settings: in vivo
MDA-MB-468 [32] = assay: Induction of apoptosis in human MDA-MB-468 cells assessed as late apoptotic cells at 10 uM measured after 72 hrs by annexinV-FITC/propidium iodide staining based flow cytometry (reference value: 13.9 %); assay type: functional
MDA-MB-231 [33] = assay: Induction of apoptosis in human MDA-MB-231 cells assessed as early apoptotic cells at 40 uM measured after 72 hrs by annexinV-FITC/propidium iodide staining based flow cytometry (reference value: 5.3 %); assay type: functional
MDA-MB-231 [34] = assay: Antiproliferative activity against human MDA-MB-231 cells harboring empty pcDNA3.1 vector at 20 uM measured after 72 hrs by MTS assay; assay type: functional, cell-based
MCF-10A [35] = assay: Induction of apoptosis in human MCF-10A cells assessed as late apoptotic cells at 10 uM measured after 72 hrs by annexinV-FITC/propidium iodide staining based flow cytometry (reference value: 13.9 %); assay type: cell-based
MDA-MB-468 [36] = assay: Inhibition of Wnt/beta-catenin transactivation signalling in Wnt3a stimulated human MDA-MB-468 cells assessed as relative activity at 12.5 uM measured after 24 hrs by TOPFlash reporter gene assay relative to control; assay type: cell-based; parameters: scale not given: the % may be the effect or the level left
Mus musculus [37] = species: Mus musculus; settings: dose 90.0 mg/kg, time 5.0 day; remark: listed apart in the source
[38] = Solubility of the compound in DMSO/Tween-80/H2O (10/10/80) at 2 mg/ml; assay type: physicochemical
Mus musculus [39] = species: Mus musculus; settings: dose 90.0 mg/kg, time 5.0 day; remark: listed apart in the source
[40] = Cmax in C57BL/6 mouse at 20 mg/kg, po via gavage measured up to 24 hrs by LC-MS/MS analysis; assay type: ADME, organism-based; parameters: route oral, dose 20 mg/kg, time <=24; settings: in vivo
[41] = Half life in mouse liver microsomes at 1 uM measured up to 60 mins in presence of NADPH by LC-MS/SM analysis; assay type: ADME, Microsome; settings: 1 h

## CC(C)(Oc1cccc(N2CCC[C@@H](C(=O)N(Cc3ccc(-c4cn[nH]c4)cc3)C3CC3)C2)c1)C(=O)N1CCNCC1.Cl
SW480 [1]
  IC50: 24 µM
[2]
  t1/2: 38.4 min
MCF-10A [3]
  IC50: 92 µM
[4]
  CL/F: 51.1 mL/min/kg
[5]
  solubility: Soluble
[6]
  Activity: Toxic
MCF-10A [7]
  Activity: 1.9%
MDA-MB-468 [8]
  Activity: 53.5%
MDA-MB-231 [9]
  Activity: inactive
MCF-10A [10]
  Activity: 15.3%
MDA-MB-468 [11]
  Activity: 89%
Mus musculus [12]
  inhibition: Active
Mus musculus [13]
  inhibition: Active
[14]
  t1/2: 211 min
MDA-MB-231 [15]
  Activity: 47.5%
Mus musculus [16]
  inhibition: Active
MCF-10A [17]
  Activity: 3.9%
MDA-MB-468 [18]
  Activity: 34.6%
Mus musculus [19]
  inhibition: Active
MDA-MB-231 [20]
  Activity: Dose-Dependent Effect
MDA-MB-468 [21]
  Activity: 33.4%
Mus musculus [22]
  inhibition: Active
[23]
  Vd: 8 L/kg
[24]
  AUC: 11.71 µM·h
SW480 [25]
  Activity: 97%
[26]
  CLint: 72 µL/min/mg
MDA-MB-231 [27]
  IC50: 28 µM
SW480 [28]
  Activity: 95%
[29]
  AUC: 0.71 µM·h
MDA-MB-468 [30]
  Activity: 17.5%
[31]
  t1/2: 184 min
MDA-MB-468 [32]
  Activity: 17.6%
MDA-MB-231 [33]
  Activity: 53.1%
MDA-MB-231 [34]
  Activity: Active
MCF-10A [35]
  Activity: 12.3%
MDA-MB-468 [36]
  Activity: 96%
Mus musculus [37]
  inhibition: Active
[38]
  solubility: Soluble
Mus musculus [39]
  inhibition: Active
[40]
  Cmax: 3.21 µM
[41]
  t1/2: 9.6 min
